{"source": "ChEMBL document CHEMBL2095176", "about": "“GSK Tuberculosis Screening Data”", "data": [{"system": "Mycobacterium tuberculosis variant bovis BCG", "assay": "microbe, parasite or virus in culture", "assay_type": "functional", "units": {"MIC90": "µM"}, "values": [{"smiles": "O=C(C=Cc1cccs1)N1CCN(Cc2ccc(Br)s2)CC1", "MIC90": 2.8}, {"smiles": "CN1CCN(c2ccc(C(F)(F)F)cc2NC(=O)c2ccccn2)CC1", "MIC90": 7.2}, {"smiles": "NC(=O)c1csc(-c2cccc(OCCNCCc3cccc(F)c3)c2)n1", "MIC90": 2}, {"smiles": "CCOc1ccc(-c2nc(NC(=O)C3CCCN3S(=O)(=O)c3cccs3)sc2C)cc1", "note": "(stereo unspecified)", "MIC90": 2}, {"smiles": "COC(=O)c1c(NC(=O)c2c(F)c(F)c(F)c(F)c2F)sc2c1CCCCC2", "MIC90": 2}, {"smiles": "Cn1nc(C(=O)N2CCc3sccc3C2c2ccccc2)c2ccccc2c1=O", "note": "(stereo unspecified)", "MIC90": 2}, {"smiles": "COCCCNC(=N)c1ccc(NC(=O)c2ccc(C(=O)Nc3ccc(C(=N)NCCCOC)cc3)cc2)cc1", "MIC90": 0.5}, {"smiles": "O=C(O)c1ccccc1COc1ccccc1", "MIC90": 0.5}, {"smiles": "Cc1cccc(-c2nc(Nc3ccncn3)c3sccc3n2)n1", "MIC90": 0.3}, {"smiles": "O=C(Nc1nc(-c2ccccn2)cs1)c1ccc(-n2cccn2)cc1", "MIC90": 0.7}, {"smiles": "Cc1ccc(-n2nc(C)c3c(N4CCCNCC4)nc(C4CC4)nc32)cc1", "MIC90": 0.8}, {"smiles": "COCCNc1nc(N2CCCC2)c2c(c1C#N)CCN(C)C2", "MIC90": 0.8}, {"smiles": "CCCSc1ncccc1C(=O)Nc1ccccc1Nc1ccccc1", "MIC90": 0.8}, {"smiles": "CCc1cc(=O)[nH]c(-n2nc(C)cc2NC(=O)c2ccc(C(C)(C)C)cc2)n1", "MIC90": 0.8}, {"smiles": "COCCN1CCN(c2ccnc(-n3cnc4cc(C)c(C)cc43)n2)CC1", "MIC90": 0.8}, {"smiles": "CC1CNC(c2ccc(NC(=O)c3ccc(C(=O)Nc4ccc(C5=NC(C)CN5)cc4)cc3)cc2)=N1", "note": "(stereo unspecified)", "MIC90": 0.8}, {"smiles": "Cc1csc(NC(=O)CSc2nc(C)c(C)n2Cc2ccc(Cl)cc2)c1C#N", "MIC90": 0.9}, {"smiles": "O=C(c1cccc(-c2noc(-c3ccccc3)n2)c1)N1CCCCC1CCO", "note": "(stereo unspecified)", "MIC90": 0.9}, {"smiles": "Cc1ccc2nc(C(F)(F)F)c(C(=O)NCc3cc(Cl)cc(Cl)c3)n2c1", "MIC90": 0.6}, {"smiles": "Cc1ccc2nc(C(F)(F)F)c(C(=O)NCc3cccs3)n2c1", "MIC90": 1.2}, {"smiles": "CCc1ccc(CN2CCC3(CC2)OCCc2sccc23)s1", "MIC90": 0.5}, {"smiles": "c1cc2c(s1)CCOC21CCN(Cc2ccc3c(c2)OCCO3)CC1", "MIC90": 1.6}, {"smiles": "O=C(NC12CC3CC(CC(C3)C1)C2)c1cc2cc(Cl)ccc2[nH]1", "MIC90": 0.8}, {"smiles": "CCOc1ccc(-c2nc(CNCCc3ccc(F)cc3)cs2)cc1.O=C(O)C(=O)O", "MIC90": 9.9}, {"smiles": "N#Cc1cc(C(=O)COc2ccc(CC3SC(=O)NC3=O)cc2)ccc1N", "note": "(stereo unspecified)", "MIC90": 1.1}, {"smiles": "CCc1nc(N2CCNCC2)c2c(C)nn(-c3ccc(OC)cc3)c2n1", "MIC90": 1.1}, {"smiles": "COc1ccc(-c2csc(NC(=O)c3cnc(SC)nc3)n2)cc1", "MIC90": 1.1}, {"smiles": "O=C(NNC(=O)N1CCN(C(c2ccccc2)c2ccc(Cl)cc2)CC1)c1ccc([N+](=O)[O-])o1", "note": "(stereo unspecified)", "MIC90": 1.1}, {"smiles": "Cc1ccc2nc(C(F)(F)F)c(C(=O)NCc3ccc4c(c3)OCO4)n2c1", "MIC90": 1.8}, {"smiles": "COc1ccc2nc(C)cc(OCC(=O)NCc3ccccc3)c2c1", "MIC90": 3.6}, {"smiles": "CCc1c(C)nc(-n2nc(C)cc2NC(=O)c2ccccc2SC)[nH]c1=O", "MIC90": 3.6}, {"smiles": "C[C@@H](NCCc1nc(-c2cn(C)c3ccccc23)no1)C1CCCCC1.Cl", "MIC90": 9.4}, {"smiles": "CC(C)c1ccc2oc(-c3ccc(NC(=O)c4cccnc4)cc3)nc2c1", "MIC90": 1.2}, {"smiles": "Cc1ncc(C(=O)Nc2cccc(-c3cc(-c4c(Cl)cccc4Cl)no3)c2)c(-c2ccccc2)n1", "MIC90": 1.2}, {"smiles": "Cc1ccc(CNC(=O)c2cnn3c2NC(c2ccc(C)cc2)CC3C(F)F)cc1", "note": "(stereo unspecified)", "MIC90": 0.9}, {"smiles": "C=CCNCCS(=O)(=O)c1cccc(Nc2ccc(-c3ccc(OC)nc3)cn2)c1", "MIC90": 1.3}, {"smiles": "Cc1ccc2nc(C)c(C(=O)NCc3ccco3)n2c1", "MIC90": 1}, {"smiles": "CCCCS(=O)(=O)Nc1ccc2cnn(C)c2c1", "MIC90": 0.5}, {"smiles": "N[C@@H]1CCN(c2nc(-c3ccccc3)nc3ccccc23)C1", "MIC90": 1.4}, {"smiles": "COc1ccc(-c2nc(CN3CCCC3c3cccs3)cs2)cc1OC", "note": "(stereo unspecified)", "MIC90": 1.4}, {"smiles": "CN(Cc1nc2ccccc2s1)C(=O)c1cccc(NC(=O)c2cccs2)c1", "MIC90": 1.4}, {"smiles": "O=C(Nc1nc(-c2cccnc2)cs1)c1ccc(Br)s1", "MIC90": 1.4}, {"smiles": "CCOC(=O)c1c(-c2ccccc2)oc2ccc(O)c(CN3CCCCC3)c12", "MIC90": 1.4}, {"smiles": "CCc1nn2c(C3CCCNC3)ccnc2c1-c1ccc(OC)cc1", "note": "(stereo unspecified)", "MIC90": 1.5}, {"smiles": "c1ccc(Nc2nc(-c3ccccn3)cs2)nc1", "MIC90": 0.9}, {"smiles": "COc1ccc(CCNc2cc(-c3ccccc3)nc3ncnn23)cc1", "MIC90": 1}, {"smiles": "Cc1cccc2nc(C(=O)Nc3nc(CN4CCC(C)CC4)cs3)cn12", "MIC90": 2}, {"smiles": "CCCc1cc(=O)[nH]c(-n2nc(C)cc2NC(=O)c2cc3ccccc3o2)n1", "MIC90": 1.4}, {"smiles": "Cc1ccc(Nc2cc(C)nn2-c2nc(C)cc(O)n2)cc1", "MIC90": 0.5}, {"smiles": "CCc1c(C)nc(-n2nc(C)cc2NC(=O)c2ccc(OC)cc2OC)[nH]c1=O", "MIC90": 1.2}, {"smiles": "Cc1cc(=O)[nH]c(-n2nc(C)cc2NC(=O)C2(c3ccc(Cl)cc3)CCCC2)n1", "MIC90": 1.3}, {"smiles": "Cc1csc2nc(-c3ccccn3)nc(Nc3ccncn3)c12.O=C(O)C(F)(F)F", "MIC90": 1.3}, {"smiles": "CCc1c(C)nc(-n2nc(C)cc2NC(=O)c2cccc3ccccc23)[nH]c1=O", "MIC90": 1.8}, {"smiles": "CCc1c(C)nc(-n2nc(C)cc2NC(=O)C(CC)c2ccccc2)[nH]c1=O", "note": "(stereo unspecified)", "MIC90": 1.2}, {"smiles": "CSc1ccccc1C(=O)Nc1nc(-c2ccccn2)cs1", "MIC90": 3.8}, {"smiles": "O=C(c1ccccc1)N1CCN(c2ccccc2NC(=O)C(Cl)(Cl)Cl)CC1", "MIC90": 1}]}]}
